Test results as given in patent US9290453B2 (Merck Sharp & Dohme Corp., priority 2010, dated 2016).

target: T1, hCRTH2 (Homo sapiens, UniProt Q9Y5Y4); assay: Radioligand Binding Assay B (scintillation proximity assay, [3H]-PGD2, HEK-hCRTH2 membranes); settings: Radioligand Binding Assay B (SPA), values in text
T1 construct: expressed in transfected cells; host or cells: HEK (human embryonic kidney) cells expressing hCRTH2
T1 sequence (Q9Y5Y4 1-395): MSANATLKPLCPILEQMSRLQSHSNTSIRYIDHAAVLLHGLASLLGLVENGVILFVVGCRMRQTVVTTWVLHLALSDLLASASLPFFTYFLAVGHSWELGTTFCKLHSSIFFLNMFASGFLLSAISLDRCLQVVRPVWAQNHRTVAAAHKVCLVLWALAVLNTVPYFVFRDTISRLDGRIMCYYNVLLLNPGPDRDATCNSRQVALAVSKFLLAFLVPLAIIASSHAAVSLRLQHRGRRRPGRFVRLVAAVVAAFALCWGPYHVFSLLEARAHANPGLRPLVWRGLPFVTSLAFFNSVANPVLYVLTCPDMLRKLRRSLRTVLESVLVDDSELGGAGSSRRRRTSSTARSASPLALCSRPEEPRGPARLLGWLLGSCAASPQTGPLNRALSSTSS
Procedure: Radioligand binding also was performed using scintillation proximity assay (SPA) technology in a similar way as described above in Radioligand Binding Assay A with minor modification. Assays were done at room temperature in 10 mM HEPES pH 7.4, 1 mM EDTA containing 2 mM MnCl2 and 16 nM [^3H]-PGD2 (PerkinElmer, Waltham, Mass.) (164 Ci mmol^−1), in a final volume of 0.05 mL. Competing ligands were diluted in dimethylsulfoxide (Me2SO) and added using very low volumes (50 nL). The reaction was initiated by the addition of a mixture of 3.52 μg of membrane protein prepared from a human embryonic kidney (HEK)-hCRTH2 cell line adhered to 140 ug of wheatgerm agglutinin SPA beads (PerkinElmer). Total and non-specific binding were determined in the absence and the presence of 10 μM of a CRTH2 antagonist, respectively. The reaction was routinely conducted for 60 min at room temperature followed by centrifugation for 5 minutes at 1000 RPM. The radioactivity was measured with a TopCountNXT (PerkinElmer). Results determined using the SPA-based assay were similar to those from the filtration binding assay.

Row | Ki | Compound
1 | 22.3 nM | O=C(O)CCCCc1cc2cc(C(=O)N[C@H]3CCOc4ccccc43)ccc2nc1-c1ccccc1 [Compound 1AL, (S)-5-(6-(chroman-4-ylcarbamoyl)-2-phenylquinolin-3-yl)pentanoic acid]
2 | 27.3 nM | CC1(C)CC(NC(=O)c2ccc3nc(-c4ccc(Cl)cc4)c(CCCCC(=O)O)cc3c2)c2ccccc2O1 (stereo not shown) [Compound 5BH, 5-(2-(4-chlorophenyl)-6-((2,2-dimethylchroman-4-yl)carbamoyl)quinolin-3-yl)pentanoic acid]

same assay, conditions: Table B, Radioligand Binding Assay B (SPA), rated A-D

Row | Compound | Ki
3 | CC(C)(NC(=O)c1ccc2nc(-c3ccccc3)c(CCCCC(=O)O)cc2c1)c1ccc(F)cc1 [Compound 1AT, 5-(6-((2-(4-fluorophenyl)propan-2-yl)carbamoyl)-2-phenylquinolin-3-yl)pentanoic acid] | 20.1 to 200 nM
4 | C[C@@H](NC(=O)c1ccc2nc(-c3ccccc3)c(CCCCC(=O)O)cc2c1)c1ccc(F)cc1 [Compound 1AH, (R)-5-(6-((1-(4-fluorophenyl)ethyl)carbamoyl)-2-phenylquinolin-3-yl)pentanoic acid] | 20.1 to 200 nM
5 | O=C(O)CCCCc1cc2cc(C(=O)N[C@H]3CCOc4ccccc43)ccc2nc1-c1ccccc1 [Compound 1AL, (S)-5-(6-(chroman-4-ylcarbamoyl)-2-phenylquinolin-3-yl)pentanoic acid] | 20.1 to 200 nM
6 | N#CC1(c2ccccc2)CCN(C(=O)c2ccc3nc(-c4ccccc4)c(CCCCC(=O)O)cc3c2)C1 (stereo not shown) [Compound 1AR, 5-(6-(3-cyano-3-phenylpyrrolidine-1-carbonyl)-2-phenylquinolin-3-yl)pentanoic acid] | 2.1 to 20 nM
7 | O=C(O)CCCCc1cc2cc(C(=O)N[C@H]3COc4ccccc43)ccc2nc1-c1ccccc1 [Compound 1Ao, (R)-5-(6-((2,3-dihydrobenzofuran-3-yl)carbamoyl)-2-phenylquinolin-3-yl)pentanoic acid] | 20.1 to 200 nM
8 | CC1(C)CC(NC(=O)c2ccc3nc(-c4ccc(Cl)cc4)c(CCCCC(=O)O)cc3c2)c2ccccc2O1 (stereo not shown) [Compound 5BH, 5-(2-(4-chlorophenyl)-6-((2,2-dimethylchroman-4-yl)carbamoyl)quinolin-3-yl)pentanoic acid] | 20.1 to 200 nM
9 | COc1ccccc1C1CCN(C(=O)c2ccc3nc(-c4ccc(Cl)cc4)c(CCCCC(=O)O)cc3c2)CC1 [Compound 5BN, 5-(2-(4-chlorophenyl)-6-(4-(2-methoxyphenyl)piperidine-1-carbonyl)quinolin-3-yl)pentanoic acid] | 2.1 to 20 nM
10 | O=C(O)CCCCc1cc2cc(C(=O)N3CCN(c4ccc(F)cc4)CC3)ccc2nc1-c1ccc(Cl)cc1 [Compound 5BU, 5-(2-(4-chlorophenyl)-6-(4-(4-fluorophenyl)piperazine-1-carbonyl)quinolin-3-yl)pentanoic acid] | 2.1 to 20 nM
11 | N#Cc1ccccc1N1CCN(C(=O)c2ccc3nc(-c4ccc(Cl)cc4)c(CCCCC(=O)O)cc3c2)CC1 [Compound 5BM, 5-(2-(4-chlorophenyl)-6-(4-(2-cyanophenyl)piperazine-1-carbonyl)quinolin-3-yl)pentanoic acid] | 2.1 to 20 nM
12 | Cc1ccc(N2CCN(C(=O)c3ccc4nc(-c5ccc(Cl)cc5)c(CCCCC(=O)O)cc4c3)CC2)cc1 [Compound 5BT, 5-(2-(4-chlorophenyl)-6-(4-(p-tolyl)piperazine-1-carbonyl)quinolin-3-yl)pentanoic acid] | 2.1 to 20 nM
13 | O=C(O)CCCCc1cc2cc(C(=O)N3CC(c4cccc(F)c4)C3)ccc2nc1-c1ccc(F)cc1 [Compound 5AG, 5-(2-(4-fluorophenyl)-6-(3-(3-fluorophenyl)azetidine-1-carbonyl)quinolin-3-yl)pentanoic acid] | 20.1 to 200 nM
14 | O=C(O)CCCCc1cc2cc(C(=O)NCc3ccccc3)ccc2nc1-c1ccc(Cl)cc1 [Compound 5BL, 5-(6-(benzylcarbamoyl)-2-(4-chlorophenyl)quinolin-3-yl)pentanoic acid] | 2.1 to 20 nM
15 | O=C(O)CCCCc1cc2cc(C(=O)N[C@@H]3CCCc4ccccc43)ccc2nc1-c1ccc(Cl)cc1 [Compound 5AZ, (R)-5-(2-(4-chlorophenyl)-6-((1,2,3,4-tetrahydronaphthalen-1-yl)carbamoyl)quinolin-3-yl)pentanoic acid] | 2.1 to 20 nM
16 | O=C(O)CCCCc1cc2cc(C(=O)N3CCN(c4ccccc4C(F)(F)F)CC3)ccc2nc1-c1ccc(F)cc1 [Compound 5AR, 5-(2-(4-fluorophenyl)-6-(4-(2-(trifluoromethyl)phenyl)piperazine-1-carbonyl)quinolin-3-yl)pentanoic acid] | 2.1 to 20 nM

Second part, the molecule after the results:

Row | Ki | Compound
17 | 2.1 to 20 nM | O=C(O)CCCCc1cc2cc(C(=O)N3CC(c4cccc(F)c4)C3)ccc2nc1-c1ccc(Cl)cc1 [Compound 5BE, 5-(2-(4-chlorophenyl)-6-(3-(3-fluorophenyl)azetidine-1-carbonyl)quinolin-3-yl)pentanoic acid]
18 | 2.1 to 20 nM | O=C(O)CCCCc1cc2cc(C(=O)N3CCN(c4ccccc4)CC3)ccc2nc1-c1ccccc1 [Compound 1Ai, 5-(2-phenyl-6-(4-phenylpiperazine-1-carbonyl)quinolin-3-yl)pentanoic acid]
19 | 2.1 to 20 nM | COc1ccc(N2CCN(C(=O)c3ccc4nc(-c5ccccc5)c(CCCCC(=O)O)cc4c3)CC2)cc1 [Compound 1BD, 5-(6-(4-(4-methoxyphenyl)piperazine-1-carbonyl)-2-phenylquinolin-3-yl)pentanoic acid]
20 | 2.1 to 20 nM | O=C(O)CCCCc1cc2cc(C(=O)N[C@@H]3CCCc4cc(F)ccc43)ccc2nc1-c1ccc(Cl)cc1 [Compound 5AY, (R)-5-(2-(4-chlorophenyl)-6-((6-fluoro-1,2,3,4-tetrahydronaphthalen-1-yl)carbamoyl)quinolin-3-yl)pentanoic acid]
21 | 2.1 to 20 nM | O=C(O)CCCCc1cc2cc(C(=O)N3CC[C@@H](c4ccc(F)cc4)C3)ccc2nc1-c1ccccc1 [Compound 1AN, (S)-5-(6-(3-(4-fluorophenyl)pyrrolidine-1-carbonyl)-2-phenylquinolin-3-yl)pentanoic acid]
22 | 2.1 to 20 nM | CC1(C)CCC(NC(=O)c2ccc3nc(-c4ccc(Cl)cc4)c(CCCCC(=O)O)cc3c2)c2ccccc21 (stereo not shown) [Compound 5Bi, 5-(2-(4-chlorophenyl)-6-((4,4-dimethyl-1,2,3,4-tetrahydronaphthalen-1-yl)carbamoyl)quinolin-3-yl)pentanoic acid]
23 | 2.1 to 20 nM | O=C(O)CCCCc1cc2cc(C(=O)NC3CC(=O)Nc4ccccc43)ccc2nc1-c1ccccc1 (stereo not shown) [Compound 1AS, 5-(6-((2-oxo-1,2,3,4-tetrahydroquinolin-4-yl)carbamoyl)-2-phenylquinolin-3-yl)pentanoic acid]
24 | 2.1 to 20 nM | COc1ccc(N2CCN(C(=O)c3ccc4nc(-c5ccc(F)cc5)c(CCCCC(=O)O)cc4c3)CC2)cc1 [Compound 5AV, 5-(2-(4-fluorophenyl)-6-(4-(4-methoxyphenyl)piperazine-1-carbonyl)quinolin-3-yl)pentanoic acid]
25 | 2.1 to 20 nM | Cc1ccccc1N1CCN(C(=O)c2ccc3nc(-c4ccc(Cl)cc4)c(CCCCC(=O)O)cc3c2)CC1 [Compound 5BQ, 5-(2-(4-chlorophenyl)-6-(4-(o-tolyl)piperazine-1-carbonyl)quinolin-3-yl)pentanoic acid]
26 | 2.1 to 20 nM | O=C(O)CCCCc1cc2cc(C(=O)N3CCN(c4ccccc4Cl)CC3)ccc2nc1-c1ccccc1 [Compound 1BA, 5-(6-(4-(2-chlorophenyl)piperazine-1-carbonyl)-2-phenylquinolin-3-yl)pentanoic acid]
27 | 2.1 to 20 nM | O=C(O)CCCCc1cc2cc(C(=O)N3CC(c4ccccc4)C3)ccc2nc1-c1ccc(F)cc1 [Compound 5AM, 5-(2-(4-fluorophenyl)-6-(3-phenylazetidine-1-carbonyl)quinolin-3-yl)pentanoic acid]
28 | 2.1 to 20 nM | O=C(O)CCCCc1cc2cc(C(=O)N[C@@H]3CCCc4cc(F)ccc43)ccc2nc1-c1ccc(F)cc1 [Compound 5AE, (R)-5-(6-((6-fluoro-1,2,3,4-tetrahydronaphthalen-1-yl)carbamoyl)-2-(4-fluorophenyl)quinolin-3-yl)pentanoic acid]
